Drawing on ChEMBL document CHEMBL5729595, “MASP-2 inhibitors and methods of use” (2023), this text covers Ki for 1 compound.

Each structure is given as a SMILES string.

The assay can be described thus: Enzymatic Assay for MASP-2: The assay was run at room temperature in an assay buffer containing 20 mM Hepes, pH 7.4, 140 mM NaCl and 0.1% Tween 20. Assay parameters were adjusted such that the assay was linear with respect to time, enzyme and substrate concentrations. Under these optimized assays conditions, IC50 values were equivalent to Ki values, except in a few cases of “tight binding” inhibitors. Cases of “tight binding” or possible “slow binding” inhibitors were handled by the methods described in Copeland R. A. (2013) Evaluation of Enzyme Inhibitors in Drug Discovery. 2nd Ed., John Wiley and Sons, Inc., Chapters 5-7.

The Ki is the equilibrium dissociation constant of an inhibitor or competing ligand from its target. Take `C[C@H](NC(=O)[C@H]1C[C@H](c2ccccc2)CCN1)C(=O)NCc1ccc(C(=N)N)cc1`: the Ki was less than 500 nM.
